Patent publication EP4763839A1 (Pamplona Therapeutics (Shenzhen) Co., Ltd., priority 2023, dated 2025)
Where a name gives a salt, the structure may show the parent alone.

Target: T1, IRAK4 (Homo sapiens, UniProt Q9NWZ3)
T1 sequence (Q9NWZ3 1-460): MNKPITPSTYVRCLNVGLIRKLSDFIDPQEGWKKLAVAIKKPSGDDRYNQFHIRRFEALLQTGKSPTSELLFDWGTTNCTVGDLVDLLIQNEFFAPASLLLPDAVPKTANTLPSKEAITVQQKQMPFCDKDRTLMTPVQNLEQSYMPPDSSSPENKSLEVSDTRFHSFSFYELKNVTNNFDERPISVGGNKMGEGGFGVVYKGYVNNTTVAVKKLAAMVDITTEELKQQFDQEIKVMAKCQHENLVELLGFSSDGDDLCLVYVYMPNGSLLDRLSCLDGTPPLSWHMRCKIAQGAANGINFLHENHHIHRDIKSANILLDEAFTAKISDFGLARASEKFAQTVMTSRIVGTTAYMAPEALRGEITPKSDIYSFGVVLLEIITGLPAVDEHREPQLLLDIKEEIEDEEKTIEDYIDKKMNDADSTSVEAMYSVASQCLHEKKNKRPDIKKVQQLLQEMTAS
Test: Degradation of IRAK4 in THP1 cells, Western blot
Type: cell-based
Set-up: Degradation of IRAK4 in THP1 by compound; host or cells: THP-1
Settings: THP-1 cells, 24 hours of incubation; for DC50: IRAK4 protein by Western blot, read-out: DC50; for Dmax: maximum degradation rate, read-out: Dmax
Protocol: After 24 hours of incubation, the cells were collected into 1.5 mL centrifuge tubes and centrifuged at 1,000 rpm for 5 minutes. […] The supernatants were collected, and the IRAK4 protein levels were respectively detected by Western blot (WB). The total protein concentration in the cell lysate supernatant was determined using a BCA protein quantification kit (NCM). Based on the total protein concentration detected by BCA, the samples were adjusted to 2 μg/μL using cell lysis buffer and 5×SDS-PAGE protein loading buffer (Beyotime), heated at 95°C for 5 minutes in a metal bath, and then placed on ice for an ice bath for 5 minutes before being used as the loading samples for Western blot analysis. Protein electrophoresis was performed using a 10% SDS-PAGE gel with a loading volume of 20 μL (total protein 40 μg) and Tris-SDS electrophoresis at a constant voltage of 80 V. After electrophoresis, the proteins on the gel were transferred to a 0.2 μm PVDF membrane (Immobilon) using a semi-dry transfer method at 0.5 A and 20 V for 60 minutes. After transfer, the membrane was placed in 5% skimmed milk and incubated at rt for 2 hours. After blocking, the PVDF membrane was incubated with primary antibody against IRAK4 (Abcam) at 4°C overnight. […] The color development and protein band imaging were performed using a chemiluminescence imaging system ([…] Technology Co., Ltd.). The protein bands were analyzed for grayscale values using Image J analysis software. The corrected grayscale values for each sample were calculated and then compared with those of the control group treated with DMSO alone to calculate the degradation rate.

Row | SMILES | DC50 [µM] | Dmax [%]
1 | Cn1c(=O)n(C2CCC(=O)NC2=O)c2cccc(N3CCC(CCN4CCN(c5ccc(-n6cc(NC(=O)c7cccc(-c8ccn[nH]8)n7)c(S(N)(=O)=O)n6)cc5)CC4)CC3)c21 (stereo not shown) [Compound A350, N-(1-(4-(4-(2-(1-(1-(2,6-Dioxopiperidin-3-yl)-3-methyl-2-oxo-2,3-dihydro-1H-benzo[d]imidazol-4-yl)piperidin-4-yl)ethyl)piperazin-1-yl)phenyl)-3-sulfamoyl-1H-pyrazol-4-yl)-6-(1H-pyrazol-5-yl)picolinamide] | < 0.1 | > 60
2 | Cn1c(=O)n(C2CCC(=O)NC2=O)c2cccc(N3CCC(C(=O)N4CCN(Cc5ccc(-n6cc(NC(=O)c7cccc(-c8ccn[nH]8)n7)c(S(N)(=O)=O)n6)cc5)CC4)CC3)c21 (stereo not shown) [Compound A331, N-(1-(4-((4-(1-(1-(2,6-dioxopiperidin-3-yl)-3-methyl-2-oxo-2,3-dihydro-1H-benzo[d]imidazol-4-yl)piperidine-4-carbonyl)piperazin-1-yl)methyl)phenyl)-3-sulfamoyl-1H-pyrazol-4-yl)-6-(1H-pyrazol-5-yl)picolinamide] | < 0.1 | > 60
3 | Cn1c(=O)n(C2CCC(=O)NC2=O)c2cccc(N3CCC(CN4CCN(C5CCC(n6cc(NC(=O)c7cccc(C(F)(F)F)n7)c(C(N)=O)n6)CC5)CC4)CC3)c21 (stereo not shown) [Compound A380] | < 0.1 | > 60
4 | CC(C)(O)c1nn(-c2ccc(N3CCN(CC4CCN(c5ccc(NC6CCC(=O)NC6=O)cn5)CC4)CC3)cc2)cc1NC(=O)c1cccc(C(F)(F)F)n1 (stereo not shown) [Compound A438, N-(1-(4-(4-((1-(5-((2,6-Dioxopiperidin-3-yl)amino)pyridin-2-yl)piperidin-4-yl)methyl)piperazin-1-yl)phenyl)-3-(2-hydroxypropan-2-yl)-1H-pyrazol-4-yl)-6-(trifluoromethyl)picolinamide formate] | < 0.1 | > 60
5 | NC(=O)c1nn(-c2ccc(N3CCN(C(=O)N4CCC(Cc5ccc(N6CCC(=O)NC6=O)cc5)CC4)CC3)cc2)cc1NC(=O)c1cccc(C(F)(F)F)n1 [Compound A448] | 0.1 to 1 | 40 to 60
6 | COc1ccc(C(=O)N2CCC(CCN3CCN(c4ccc(-n5cc(NC(=O)c6cccc(C(F)(F)F)n6)c(C(C)(C)O)n5)cc4)CC3)CC2)cc1N1CCC(=O)NC1=O [Compound A454, N-(1-(4-(4-(2-(1-(3-(2,4-Dioxotetrahydropyrimidin-1(2H)-yl)-4-methoxybenzoyl)piperidin-4-yl)ethyl)piperazin-1-yl)phenyl)-3-(2-hydroxypropan-2-yl)-1H-pyrazol-4-yl)-6-(trifluoromethyl)picolinamide] | < 0.1 | > 60
7 | COc1ccc(C(=O)N2CCC(CCN3CCN(c4ccc(-n5cc(NC(=O)c6cccc(-c7ccn[nH]7)n6)c(S(N)(=O)=O)n5)cc4)CC3)C2)cc1N1CCC(=O)NC1=O (stereo not shown) [Compound A328, N-(1-(4-(4-(1-(3-(2,4-dioxotetrahydropyrimidin-1(2H)-yl)-4-methoxybenzoyl)pyrrolidin-3-ethyl)piperazin-1-yl)phenyl)-3-sulfonylamino-1H-pyrazol-4-yl)-6-(1H-pyrazol-5-yl)picolinamide trifluoroacetate] | < 0.1 | > 60
8 | CC(C)(O)c1nn(-c2ccc(N3CCN(C4CCN(c5ccc(C(=O)NC6CCC(=O)NC6=O)cc5F)CC4)CC3)cc2)cc1NC(=O)c1cccc(C(F)(F)F)n1 (stereo not shown) [Compound A443, N-(1-(4-(4-(1-(4-((2,6-dioxopiperidin-3-yl)carbamoyl)-2-fluorophenyl)piperidin-4-yl)piperazin-1-yl)phenyl)-3-(2-hydroxypropan-2-yl)-1H-pyrazol-4-yl)-6-(trifluoromethyl)picolinamide] | < 0.1 | > 60
9 | Cn1c(=O)n(C2CCC(=O)NC2=O)c2cccc(N3CCC(CN4CCN(c5ccc(-n6cc(NC(=O)c7cccc(C(F)(F)F)n7)c(C(N)=O)n6)cc5)CC4)C(F)(F)C3)c21 (stereo not shown) [Compound A298, N-(3-Carbamoyl-1-(4-(4-((1-(1-(2,6-dioxopiperidin-3-yl)-3-methyl-2-oxo-2,3-dihydro-1H-benzo[d]imidazol-4-yl)-3,3-difluoropiperidin-4-yl)methyl)piperazin-1-yl)phenyl)-1H-pyrazol-4-yl)-6-(trifluoromethyl)picolinamide] | < 0.1 | > 60
10 | NC(=O)c1nn(-c2ccc(N3CCN(C(=O)C4CC5(CCN(c6ccc(N7CCC(=O)NC7=O)cc6)CC5)C4)CC3)cc2)cc1NC(=O)c1cccc(C(F)(F)F)n1 [Compound A394, N-(3-Carbamoyl-1-(4-(4-(7-(4-(2,4-dioxotetrahydropyrimidin-1(2H)-yl)phenyl)-7-azaspiro[3.5]nonane-2-carbonyl)piperazin-1-yl)phenyl)-1H-pyrazol-4-yl)-6-(trifluoromethyl)picolinamide] | 0.1 to 1 | 40 to 60
11 | NC(=O)c1nn(-c2ccc(N3CCN(C4CCN(c5ccc(C(=O)NC6CCC(=O)NC6=O)c(F)c5)CC4)CC3)cc2)cc1NC(=O)c1cccc(C(F)(F)F)n1 (stereo not shown) [Compound A422, N-(3-Carbamoyl-1-(4-(4-(1-(4-((2,6-dioxopiperidin-3-yl)carbamoyl)-3-fluorophenyl)piperidin-4-yl)piperazin-1-yl)phenyl)-1H-pyrazol-4-yl)-6-(trifluoromethyl)picolinamide] | < 0.1 | > 60
12 | Cn1c(=O)n(C2CCC(=O)NC2=O)c2cccc(N3CCC(N4CCN(Cc5ccc(-n6cc(NC(=O)c7cccc(-c8ccn[nH]8)n7)c(S(N)(=O)=O)n6)cc5)CC4)CC3)c21 (stereo not shown) [Compound A352] | < 0.1 | > 60
13 | Cn1c(=O)n(C2CCC(=O)NC2=O)c2cccc(NCCN3CC4(C3)CN(C(=O)c3ccc(-n5cc(NC(=O)c6cccc(-c7ccn[nH]7)n6)c(S(N)(=O)=O)n5)cc3)C4)c21 (stereo not shown) [Compound A343] | < 0.1 | > 60
14 | COc1ccc(C(=O)N2CCC(CCN3CCN(c4ccc(-n5cc(NC(=O)c6cccc(-c7ccn[nH]7)n6)c(S(N)(=O)=O)n5)cc4)CC3)CC2)cc1N1CCC(=O)NC1=O [Compound A324] | < 0.1 | > 60
15 | NC(=O)c1nn(-c2ccc(N3CCN(CC4CCN(c5ccc(NC6CCC(=O)NC6=O)cc5F)C4)CC3)cc2)cc1NC(=O)c1cccc(C(F)(F)F)n1 (stereo not shown) [Compound A361, N-(3-Carbamoyl-1-(4-(4-((1-(4-((2,6-dioxopiperidin-3-yl)amino)-2-fluorophenyl)pyrrolidin-3-yl)methyl)piperazin-1-yl)phenyl)-1H-pyrazol-4-yl)-6-(trifluoromethyl)picolinamide formate] | 0.1 to 1 | 40 to 60
16 | N#Cc1cccc(C(=O)Nc2cn(-c3ccc(N4CCN(C5CCN(c6ccc(NC7CCC(=O)NC7=O)cc6F)CC5)CC4)cc3)nc2C(N)=O)n1 (stereo not shown) [Compound A388, N-(3-Carbamoyl-1-(4-(4-(1-(4-((2,6-Dioxopiperidin-3-yl)amino)-2-fluorophenyl)piperidin-4-yl)piperazin-1-yl)phenyl)-1H-pyrazol-4-yl)-6-cyanopicolinamide] | > 1 | < 40
17 | Cn1c(=O)n(C2CCC(=O)NC2=O)c2cccc(NCCN3CCC4(CCN(C(=O)c5ccc(-n6cc(NC(=O)c7cccc(-c8ccn[nH]8)n7)c(S(N)(=O)=O)n6)cc5)C4)C3)c21 (stereo not shown) [Compound A333] | < 0.1 | > 60
18 | Cn1c(=O)n(C2CCC(=O)NC2=O)c2ccc(N3CCC(CN4CCN(c5ccc(-n6cc(NC(=O)c7cccc(C(F)(F)F)n7)c(C(N)=O)n6)cc5)CC4)C3)cc21 (stereo not shown) [Compound A304, N-(3-carbamoyl-1-(4-(4-((1-(1-(2,6-dioxopiperidin-3-yl)-3-methyl-2-oxo-2,3-dihydro-1H-benzo[d]imidazol-5-yl)pyrrolidin-3-yl)methyl)piperazin-1-yl)phenyl)-1H-pyrazol-4-yl)-6-(trifluoromethyl)picolinamide] | < 0.1 | 40 to 60
19 | CC(C)(O)c1nn(-c2ccc(N3CCN(CC4CCN(c5ccc(OC6CCC(=O)NC6=O)cn5)CC4)CC3)cc2)cc1NC(=O)c1cccc(C(F)(F)F)n1 (stereo not shown) [Compound A437] | < 0.1 | > 60
20 | N#Cc1ccc(C(=O)Nc2cn(-c3ccc(N4CCN(CC5CCN(c6ccc(NC7CCC(=O)NC7=O)cc6F)CC5)CC4)cc3)nc2C(N)=O)nc1 (stereo not shown) [Compound A353, N-(3-Carbamoyl-1-(4-(4-((1-(4-((2,6-dioxopiperidin-3-yl)amino)-2-fluorophenyl)piperidin-4-yl)methyl)piperazin-1-yl)phenyl)-1H-pyrazol-4-yl)-5-cyanopicolinamide] | > 1 | < 40
